Target: xanthine oxidase (Homo sapiens, UniProt P47989)
Experiment: Xanthine oxidase inhibitory activity, 96 well plate, kinetic reading at 295 nm
Format: biochemical

xanthine oxidase, sequence (P47989 whole entry, species assumed): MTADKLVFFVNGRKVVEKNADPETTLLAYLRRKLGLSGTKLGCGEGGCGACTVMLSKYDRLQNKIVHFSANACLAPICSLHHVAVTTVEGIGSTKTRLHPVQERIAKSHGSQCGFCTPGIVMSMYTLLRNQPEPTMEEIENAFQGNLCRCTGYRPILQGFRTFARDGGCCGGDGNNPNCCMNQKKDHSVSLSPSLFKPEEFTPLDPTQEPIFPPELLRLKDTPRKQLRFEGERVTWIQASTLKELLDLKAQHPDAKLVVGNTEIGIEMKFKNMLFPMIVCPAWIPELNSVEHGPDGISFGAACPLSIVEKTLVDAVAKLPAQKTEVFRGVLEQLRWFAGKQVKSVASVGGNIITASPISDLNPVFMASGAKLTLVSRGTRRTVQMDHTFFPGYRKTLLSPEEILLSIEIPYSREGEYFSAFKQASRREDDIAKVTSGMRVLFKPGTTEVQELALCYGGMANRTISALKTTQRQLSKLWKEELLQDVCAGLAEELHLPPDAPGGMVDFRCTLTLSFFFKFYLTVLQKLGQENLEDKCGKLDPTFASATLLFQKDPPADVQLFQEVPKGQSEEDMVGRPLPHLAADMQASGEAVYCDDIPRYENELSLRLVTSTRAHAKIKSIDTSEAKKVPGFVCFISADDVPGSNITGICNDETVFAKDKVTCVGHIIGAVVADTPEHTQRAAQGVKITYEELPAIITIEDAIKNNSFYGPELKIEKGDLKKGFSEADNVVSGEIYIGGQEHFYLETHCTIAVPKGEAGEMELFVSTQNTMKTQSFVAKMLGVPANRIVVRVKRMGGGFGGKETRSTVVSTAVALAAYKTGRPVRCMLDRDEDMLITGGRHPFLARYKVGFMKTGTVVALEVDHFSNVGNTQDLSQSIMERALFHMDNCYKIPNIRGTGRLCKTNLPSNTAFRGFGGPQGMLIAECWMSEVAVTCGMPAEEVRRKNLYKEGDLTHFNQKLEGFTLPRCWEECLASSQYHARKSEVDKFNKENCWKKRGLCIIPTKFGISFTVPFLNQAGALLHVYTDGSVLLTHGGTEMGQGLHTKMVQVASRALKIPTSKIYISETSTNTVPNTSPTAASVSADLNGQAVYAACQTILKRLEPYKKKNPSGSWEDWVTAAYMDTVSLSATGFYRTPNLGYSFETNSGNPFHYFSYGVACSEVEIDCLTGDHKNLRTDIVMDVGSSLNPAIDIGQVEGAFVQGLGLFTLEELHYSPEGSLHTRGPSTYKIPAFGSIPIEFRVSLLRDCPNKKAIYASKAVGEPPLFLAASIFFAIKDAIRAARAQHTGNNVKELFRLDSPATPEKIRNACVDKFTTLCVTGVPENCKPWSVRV

| Compound | PERCENT XANTHINE OXIDASE INHIBITION (compound concentration 100 μM) [%] | PERCENT XANTHINE OXIDASE INHIBITION (compound concentration 1 μM) [%] | PERCENT XANTHINE OXIDASE INHIBITION (compound concentration 10 μM) [%] | PERCENT XANTHINE OXIDASE INHIBITION (compound concentration 0.1 μM) [%] | also measured |
| --- | --- | --- | --- | --- | --- |
| CC(=O)Nc1ccc(-c2nn[nH]n2)cc1 [Compound FR] | 40 | – | – | – | – |
| Fc1ccc(-c2nnn[nH]2)cc1Cl [Compound HE] | 33 | – | – | – | – |
| O=C(/C=C/c1ccccc1)Nc1nnn[nH]1 [Compound HN] | 42 | 10 | 13 | – | – |
| O=C(Nc1ccc(F)cc1)c1ccc(-c2nnn[nH]2)cc1 [Compound HX] | – | 92 | – | 59 | PERCENT XANTHINE OXIDASE INHIBITION (compound concentration 0.03 μM): 37% |
| CC(=O)c1cccc(NC(=O)c2ccc(-c3nnn[nH]3)cc2)c1 [Compound IA] | – | 90 | – | 54 | PERCENT XANTHINE OXIDASE INHIBITION (compound concentration 0.03 μM): 31% |
| CC(C)COc1ccc(-c2nn[nH]n2)cc1 [Compound IR] | – | 88 | – | 47 | PERCENT XANTHINE OXIDASE INHIBITION (compound concentration 0.03 μM): 28% |
| O=C(Nc1ccc(-c2nnn[nH]2)cc1)c1ccccc1 [Compound IT] | – | 56 | – | 15 | PERCENT XANTHINE OXIDASE INHIBITION (compound concentration 0.03 μM): 7% |
| CC(C)COc1ccc(-c2nnn[nH]2)cc1Br [Compound JC] | – | 31 | – | 6 | – |
| CC(C)COc1ccc(-c2nnn[nH]2)cc1C#N [Compound JE] | – | 82 | – | 32 | PERCENT XANTHINE OXIDASE INHIBITION (compound concentration 0.03 μM): 12% |
| c1ccc(-c2nnn[nH]2)cc1 [FF] | 10 | – | – | – | – |
| Clc1cccc(-c2nnn[nH]2)c1 [FG] | 34 | – | – | – | – |
| Clc1ccc(-c2nnn[nH]2)cc1 [FH] | 69 | – | 27 | – | – |
| Brc1ccc(-c2nnn[nH]2)cc1 [FI] | 67 | – | 21 | – | – |
| COc1ccc(-c2nnn[nH]2)cc1 [FK] | 71 | – | 30 | – | – |
| FC(F)(F)Oc1ccc(-c2nnn[nH]2)cc1 [FL] | 55 | – | 14 | – | – |
| Fc1ccc(-c2nnn[nH]2)cc1 [FM] | 78 | – | 19 | – | – |
| Cc1ccc(-c2nnn[nH]2)cc1 [FN] | 32 | – | 3 | – | – |
| Nc1ccc(-c2nnn[nH]2)cc1 [FO] | 30 | – | 3 | – | – |
| Fc1ccccc1-c1nnn[nH]1 [FP] | 21 | – | 3 | – | – |
| CNC(=O)Nc1ccc(-c2nnn[nH]2)cc1 [FS] | 10 | – | – | – | – |
| O=C(OCc1ccccc1)c1ccc(-c2nnn[nH]2)cc1 [GA] | 100 | 78 | 100 | – | – |
| O=C(Oc1ccccc1)c1ccc(-c2nnn[nH]2)cc1 [GC] | – | 100 | – | 97 | PERCENT XANTHINE OXIDASE INHIBITION (compound concentration 0.05 μM): 52% |
| O=C(OCc1cccc(Cl)c1)c1ccc(-c2nnn[nH]2)cc1 [GD] | 100 | 79 | 82 | – | – |
| O=C(OCc1ccc(Cl)cc1)c1ccc(-c2nnn[nH]2)cc1 [GE] | – | 100 | – | 100 | PERCENT XANTHINE OXIDASE INHIBITION (compound concentration 0.05 μM): 59% |
| O=C(OC1CCCCC1)c1ccc(-c2nnn[nH]2)cc1 [GH] | – | – | – | – | PERCENT XANTHINE OXIDASE INHIBITION (compound concentration 0.03 μM): 65%; PERCENT XANTHINE OXIDASE INHIBITION (compound concentration 0.1 μM, 0.1 µM): 91%; PERCENT XANTHINE OXIDASE INHIBITION (compound concentration 1 μM, 1 µM): 100% |
| O=C(OCC12CC3CC(CC(C3)C1)C2)c1ccc(-c2nnn[nH]2)cc1 [GI] | – | 100 | – | 95 | PERCENT XANTHINE OXIDASE INHIBITION (compound concentration 0.03 μM): 75% |
| O=C(Oc1cc[n+]([O-])cc1)c1ccc(-c2nnn[nH]2)cc1 [GN] | – | 9 | – | – | – |
| O=C(OCC(C(F)(F)F)C(F)(F)F)c1ccc(-c2nnn[nH]2)cc1 [GS] | – | 95 | – | 68 | PERCENT XANTHINE OXIDASE INHIBITION (compound concentration 0.01 μM): 13% |
| O=C(Oc1cccc(Br)c1)c1ccc(-c2nnn[nH]2)cc1 [GT] | – | 94 | – | 53 | PERCENT XANTHINE OXIDASE INHIBITION (compound concentration 0.01 μM): 8% |
| O=C(OCc1ccc(Br)cc1)c1ccc(-c2nnn[nH]2)cc1 [GU] | – | 94 | – | 69 | PERCENT XANTHINE OXIDASE INHIBITION (compound concentration 0.01 μM): 17% |

Further lines, with some results ahead:

| PERCENT XANTHINE OXIDASE INHIBITION (compound concentration 100 μM) [%] | PERCENT XANTHINE OXIDASE INHIBITION (compound concentration 1 μM) [%] | PERCENT XANTHINE OXIDASE INHIBITION (compound concentration 10 μM) [%] | PERCENT XANTHINE OXIDASE INHIBITION (compound concentration 0.1 μM) [%] | Compound | also measured |
| --- | --- | --- | --- | --- | --- |
| 92 | 9 | 54 | – | CC(=O)c1ccc(-c2nnn[nH]2)cc1 [FU] | – |
| 100 | 64 | 92 | – | CCOC(=O)c1ccc(-c2nnn[nH]2)cc1 [FV] | – |
| 100 | 39 | 82 | – | COC(=O)c1ccc(-c2nnn[nH]2)cc1 [FW] | – |
| 95 | 73 | 95 | – | CCCCOC(=O)c1ccc(-c2nnn[nH]2)cc1 [FX] | – |
| 91 | 11 | 56 | – | O=C(O)c1ccc(-c2nnn[nH]2)cc1 [FY] | – |
| 100 | 88 | 97 | – | CC(C)OC(=O)c1ccc(-c2nnn[nH]2)cc1 [FZ] | – |
| 100 | 82 | 97 | – | O=C(OCC1CC1)c1ccc(-c2nnn[nH]2)cc1 [GB] | – |
| 97 | 28 | 79 | – | CCCCCCOC(=O)c1ccc(-c2nnn[nH]2)cc1 [GF] | – |
| – | 99 | – | 59 | O=C(OCC(F)(F)F)c1ccc(-c2nnn[nH]2)cc1 [GJ] | PERCENT XANTHINE OXIDASE INHIBITION (compound concentration 0.01 μM): 12% |
| – | 46 | – | 12 | O=C(OCCN1CCOCC1)c1ccc(-c2nnn[nH]2)cc1 [GK] | PERCENT XANTHINE OXIDASE INHIBITION (compound concentration 0.01 μM): 3% |
| – | 4 | – | – | O=C(OCCN1CCCC1)c1ccc(-c2nnn[nH]2)cc1 [GL] | – |
| – | 76 | – | 28 | C#CCCCOC(=O)c1ccc(-c2nnn[nH]2)cc1 [GM] | PERCENT XANTHINE OXIDASE INHIBITION (compound concentration 0.01 μM): 8% |
| – | 82 | – | 18 | O=C(OC1CCCCC1)c1ccc(-c2nnn[nH]2)cc1 [GO] | PERCENT XANTHINE OXIDASE INHIBITION (compound concentration 0.01 μM): 6% |
| – | 92 | – | 65 | O=C(OCC(F)(F)C(F)F)c1ccc(-c2nnn[nH]2)cc1 [GP] | PERCENT XANTHINE OXIDASE INHIBITION (compound concentration 0.01 μM): 9% |
| – | 78 | – | 35 | CCC#CCOC(=O)c1ccc(-c2nnn[nH]2)cc1 [GQ] | PERCENT XANTHINE OXIDASE INHIBITION (compound concentration 0.01 μM): 0% |
| – | 48 | – | 8 | C=C(C)C1CC=C(COC(=O)c2ccc(-c3nnn[nH]3)cc2)CC1 (stereo not shown) [GR] | PERCENT XANTHINE OXIDASE INHIBITION (compound concentration 0.01 μM): 0% |

Source: US7087631B2, “Aryltetrazole compounds, and compositions thereof” (Inotek Pharmaceuticals Corporation, priority 2002, dated 2006)
